The text below walks through data of ChEMBL document CHEMBL1667742, “Angiotensin II receptor type 1 (AT1) selective nonpeptidic antagonists--a perspective” (Bioorg Med Chem, 2010).

Residue numbers refer to the chain shown, from its start.

Series [1] has as its target T1, Type-2 angiotensin II receptor (Homo sapiens) (UniProt P50052).
T1 sequence (whole entry): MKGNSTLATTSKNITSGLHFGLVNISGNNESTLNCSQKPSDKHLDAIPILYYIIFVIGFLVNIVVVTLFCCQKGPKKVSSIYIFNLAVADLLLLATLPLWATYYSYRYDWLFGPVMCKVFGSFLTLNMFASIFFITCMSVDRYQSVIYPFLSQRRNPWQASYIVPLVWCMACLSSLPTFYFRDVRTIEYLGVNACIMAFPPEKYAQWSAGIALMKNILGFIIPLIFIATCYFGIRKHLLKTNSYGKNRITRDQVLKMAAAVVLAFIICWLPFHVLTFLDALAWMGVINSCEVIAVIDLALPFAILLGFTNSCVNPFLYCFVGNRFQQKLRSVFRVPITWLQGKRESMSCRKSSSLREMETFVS
As to the kind of experiment: (§1) Binding affinity to angiotensin AT2 receptor. As to conditions: concentration not given here.

The target of series [2] is T2, Type-2 angiotensin II receptor (Homo sapiens, UniProt P50052).
T2 sequence (P50052 whole entry): T1 sequence (whole entry)
The description is as §1.

The target in series [3] is T3, Type-1 angiotensin II receptor (Cavia porcellus) (UniProt Q9WV26).
T3 sequence (whole entry): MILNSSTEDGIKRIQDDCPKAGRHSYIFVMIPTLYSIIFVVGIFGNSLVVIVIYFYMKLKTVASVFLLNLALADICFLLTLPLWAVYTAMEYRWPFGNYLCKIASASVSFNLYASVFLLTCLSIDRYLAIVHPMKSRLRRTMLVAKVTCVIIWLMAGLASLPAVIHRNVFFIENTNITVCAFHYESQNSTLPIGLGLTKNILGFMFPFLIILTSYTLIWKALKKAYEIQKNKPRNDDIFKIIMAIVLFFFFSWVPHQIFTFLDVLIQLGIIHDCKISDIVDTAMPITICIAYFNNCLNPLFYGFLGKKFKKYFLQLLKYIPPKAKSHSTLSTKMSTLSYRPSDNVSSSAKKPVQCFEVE
Kind of series: Antagonist activity at angiotensin AT1 receptor in guinea pig aorta assessed as reduction of angiotensin 2-induced contractile response. The format is functional, tissue-based.

The target of series [4] is T4, Type-1 angiotensin II receptor (Bos taurus, UniProt P25104).
T4 sequence (P25104 whole entry): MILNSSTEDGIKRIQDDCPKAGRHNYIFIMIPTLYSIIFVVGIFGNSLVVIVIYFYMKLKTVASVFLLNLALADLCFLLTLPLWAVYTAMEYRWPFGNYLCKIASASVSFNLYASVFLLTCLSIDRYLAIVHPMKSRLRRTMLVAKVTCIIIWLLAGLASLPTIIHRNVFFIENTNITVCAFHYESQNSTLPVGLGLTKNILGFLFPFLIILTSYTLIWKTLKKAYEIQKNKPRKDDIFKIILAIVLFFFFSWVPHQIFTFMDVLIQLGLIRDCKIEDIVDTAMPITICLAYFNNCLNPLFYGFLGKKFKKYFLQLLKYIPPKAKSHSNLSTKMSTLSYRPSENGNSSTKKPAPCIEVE
Kind of series: Displacement of radiolabeled angiotensin 2 from angiotensin AT1 receptor in bovine adrenal cortex membranes. The class given is cell membranes, Membrane.

The target in series [5] is T5, Type-1 angiotensin II receptor (Homo sapiens, UniProt P30556).
T5 sequence (P30556 whole entry): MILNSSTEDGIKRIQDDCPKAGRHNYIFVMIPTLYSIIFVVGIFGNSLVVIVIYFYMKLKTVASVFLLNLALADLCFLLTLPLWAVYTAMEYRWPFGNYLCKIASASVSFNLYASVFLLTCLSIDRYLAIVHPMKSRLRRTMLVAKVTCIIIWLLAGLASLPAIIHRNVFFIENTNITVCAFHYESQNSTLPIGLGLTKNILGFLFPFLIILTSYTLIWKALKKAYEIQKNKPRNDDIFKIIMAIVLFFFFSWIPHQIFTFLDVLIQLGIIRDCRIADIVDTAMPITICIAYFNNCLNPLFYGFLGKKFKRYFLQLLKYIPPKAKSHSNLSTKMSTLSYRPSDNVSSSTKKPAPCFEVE
As to the kind of experiment: Binding affinity to angiotensin AT1 receptor.

In series [6] the target is T6, Type-1 angiotensin II receptor (Homo sapiens) (UniProt P30556).
T6 sequence (whole entry): T5 sequence (P30556 whole entry)
As to the kind of experiment: Ratio of compound Ki to losartan Ki for angiotensin AT1 receptor.

In series [7] the target is T6, Type-1 angiotensin II receptor (Homo sapiens). Kind of series: (§2) Antagonist activity at angiotensin AT1 receptor. The format is functional.
Series [8] deals with Rattus norvegicus. Kind of series: Cardiotoxicity in left renal artery-ligated hypertensive rat model assessed as reduction of heart rate at 0.3 to 3 mg/kg, administered intra-arterially for 6 days. The class given is toxicity, organism-based. Details: dose 0.3-3 mg/kg; scale not given: the % may be the effect or the level left. To be noted: in vivo, other, 144 h.
Series [9] deals with Rattus norvegicus. As to the kind of experiment: Cardiotoxicity in left renal artery-ligated hypertensive rat model assessed as reduction of heart rate at 1 to 10 mg/kg, po for 6 days. The format is toxicity, organism-based. Also noted: dose 1-10 mg/kg, route oral; scale not given: the % may be the effect or the level left. To be noted: in vivo, 144 h.
For series [10], the target named is T5, Type-1 angiotensin II receptor. Kind of series: Displacement of [3H]-angiotensin 2 from angiotensin AT1 receptor.
The target of series [11] is T7, Type-1 angiotensin II receptor (Oryctolagus cuniculus, UniProt P34976).
T7 sequence (P34976 whole entry): T5 sequence (P30556 whole entry) with I2M, V49A, I254V, I270V, R272H, R311K, T349S, A353V
Kind of series: Binding affinity to angiotensin AT1 receptor in rabbit aortic rings.

Series [12] relates to Rattus norvegicus. As to the kind of experiment: Antihypertensive activity in po dosed conscious rat. The format is functional. As to conditions: read-out: ED50.
The subject of series [13] is Rattus norvegicus. Kind of series: Antihypertensive activity in iv dosed conscious rat. The class given is functional.
The subject of series [14] is Rattus norvegicus. As to the kind of experiment: Antihypertensive activity in conscious normotensive rat assessed as inhibition of angiotensin 2-induced pressor response at 1 mg/kg, iv after 6 hrs. The class given is functional.
Series [15] can be described thus: Displacement of [3H]-angiotensin 2 from angiotensin AT1 receptor in rat liver membranes. The class given is cell membranes, Membrane.
Series [16] addresses T8, Type-1 angiotensin II receptor (Oryctolagus cuniculus) (UniProt P34976).
T8 sequence (whole entry): T5 sequence (P30556 whole entry) with I2M, V49A, I254V, I270V, R272H, R311K, T349S, A353V
As to the kind of experiment: Antagonist activity at angiotensin AT1 receptor in rabbit aorta. The class given is functional, tissue-based.

In series [17] the target is T5, Type-1 angiotensin II receptor. Kind of series: Antagonist activity at angiotensin AT1 receptor in human PLC-PRF5 cells. The class given is functional, cell-based.
For series [18] the target is unchanged. Kind of series: Displacement of [3H]-angiotensin 2 from angiotensin AT1 receptor in human PLC-PRF5 cells. The format is cell-based.
Series [19] deals with Rattus norvegicus. Kind of series: Inhibition of angiotensin 2-induced response in intraduodenally dosed pithed normotensive rat. The format is functional.
For series [20], the target named is T5, Type-1 angiotensin II receptor. Described as §2. The format is functional.
The nature of series [21]: Displacement of radiolabeled angiotensin2 from angiotensin AT1 receptor in rat adrenal cortex membranes. The class given is cell membranes, Membrane.
In series [22] the test system is Rattus norvegicus. As to the kind of experiment: Antihypertensive activity in iv dosed renal hypertensive rat model. As to conditions: read-out: ID50 (the source's name). The class given is functional.
Series [23] concerns Rattus norvegicus. Kind of series: Antihypertensive activity in po dosed renal hypertensive rat model. The class given is functional. As to conditions: read-out: ID50 (the source's name).
The target of series [24] is T9, Type-1 angiotensin II receptor (Cavia porcellus, UniProt Q9WV26).
T9 sequence (Q9WV26 whole entry): T3 sequence (whole entry)
As to the kind of experiment: Binding affinity to angiotensin AT1 receptor in guinea pig adrenal cortex membranes. The format is cell membranes, Membrane.

Series [25] relates to Rattus norvegicus. Kind of series: Inhibition of angiotensin 2-induced response in iv dosed normotensive rat. The format is functional. As to conditions: Rattus norvegicus, iv; read-out: ID50 (the source's name).
The test system of series [26] is Rattus norvegicus. Kind of series: Antihypertensive activity in conscious normotensive rat after 24 hrs. The class given is functional.

`CCc1nc2c(C)cc(C)nc2n1Cc1ccc(-c2ccsc2-c2nn[nH]n2)cc1` returned an inhibition in series [1] of 90%. The same compound showed an IC50 in series [2] of 2.3 nM.
Consider `CCCc1nc(C(C)(C)O)c(C(=O)O)n1Cc1ccc(-c2ccccc2-c2nnn[nH]2)cc1` [OLMESARTAN], for which, in [3], the pD2 came to 9.9. The 50% inhibitory concentration (IC50) in series [4] is 7.7 nM.
Regarding `CCOc1nc2cccc(C(=O)O)c2n1Cc1ccc(-c2ccccc2-c2nnn[nH]2)cc1`, the IC50 in [5] amounted to 110 nM. Moreover, the Ratio Ki in [6] is 10. Besides, the pD2 in [7] turned out to be 9.97.
Take `CCCCc1nc(Cl)c(C(=O)O)n1Cc1ccc2oc(-c3ccccc3-c3nn[nH]n3)c(Br)c2c1` [ZOLASARTAN]: the Activity with Rattus norvegicus [8] and with Rattus norvegicus [9] was less than 15% throughout. Further, in series [10], the affinity corresponds to a Ki of 2 nM.
The compound `CCCCC1=N[C@](C)(C2CCCCC2)C(=O)N1Cc1ccc(-c2ccccc2-c2nnn[nH]2)cc1` gave an IC50 in [11] of 0.77 nM.
For the compound `CCCCc1nc2ccc(NC(=O)N(C)C(C)C)cc2c(=O)n1Cc1ccc(-c2ccccc2-c2nn[nH]n2)cc1`, the figures for the ED50 with Rattus norvegicus [12] and in the series on Rattus norvegicus [13] were 0.68 mg/kg and 0.25 mg/kg, respectively.
For `CCCCc1nn(-c2ccccc2C(F)(F)F)c(=O)n1Cc1ccc(-c2ccccc2-c2nn[nH]n2)cc1`, the inhibition in vivo at 1 mg/kg in the series with Rattus norvegicus [14] was determined as 70%.
As to `CCc1nc(C2CC2)c(C(N)=O)n1Cc1ccc2oc(-c3ccccc3NS(=O)(=O)C(F)(F)F)c(Br)c2c1`, the pKi in series [15] worked out at 9.3. The pKb in [16] was 9.
In the case of `CCCCN1CC2(CN1Cc1ccc(-c3ccccc3S(=O)(=O)NC(=O)c3ccccc3)cc1)C(=O)CCC2=O`, the IC50 in series [17] was determined as 12 nM. The compound also returned a Ki in [18] of 10 nM.
Take `CC1CC(=O)NN=C1c1ccc2nc(C3CC3)n(Cc3ccc(-c4ccccc4-c4nn[nH]n4)cc3)c2c1` (configuration not stated): the “inhibition (INH)” value in the series on Rattus norvegicus [19] was 80%. In addition, the midpoint of inhibition in series [20], the IC50, lay at 1.8 nM.
`CCCCc1nc(SC)c(C(=O)O)n1Cc1ccc(-c2ccccc2-c2nnn[nH]2)cc1` gave an IC50 in series [21] of 0.2 nM. Further, the ED50 was 0.05 mg/kg with Rattus norvegicus [22] and 0.4 mg/kg in the series on Rattus norvegicus [23].
The compound `CCc1cc(Oc2ccc(-c3ccccc3-c3nnn[nH]3)cc2)c2ncccc2n1` showed an IC50 in [24] of 24 nM. This compound also displayed an ED50 with Rattus norvegicus [13] of 0.86 mg/kg.
Turning to `CCCc1cc(O)c(C)c(=O)n1Cc1ccc(-c2ccccc2-c2nn[nH]n2)cc1`, the ED50 in the series with Rattus norvegicus [25] was found to be 0.02 mg/kg.
Compound `CCCc1nn(Cc2ccccc2)c(C(=O)O)c1Cc1ccc(-c2ccccc2-c2nn[nH]n2)cc1` yielded an Activity in the series with Rattus norvegicus [26] of 90%.
